Reference: patent US20210238173A1, “MITOGEN-ACTIVATED PROTEIN KINASE KINASE 7 INHIBITORS” (Yeda Research and Development Co. Ltd., priority 2018, published 2021)

Legend:
[1] = target: FLT4 (VEGFR3) (Homo sapiens, UniProt P35916); test: Kinome selectivity screen FLT4; format: biochemical; conditions: 1 μM compound
Protocol: (§1) Kinome Selectivity Screen:
(§2) Kinase selectivity was assessed using the Life Technologies SelectScreen Kinase Profiling Service in a custom panel of 76 kinases selected to provide broad representative coverage of all kinase families. Kinase activity assays employed either the Z′-LYTE or Adapta assay technologies with ATP concentrations at or near the KM, ATP for each kinase and a test compound concentration of 1 μM.

[2] = target: IGF1R (Homo sapiens, UniProt P08069); test: Kinome selectivity screen IGF1R; format: biochemical; conditions: 1 μM compound
Protocol: as §1, §2

[3] = target: RPS6KA3 (RSK2) (Homo sapiens, UniProt P51812); test: Kinome selectivity screen RPS6KA3; format: biochemical; conditions: 1 μM compound
Protocol: as §1, §2

[4] = target: JAK3 (Homo sapiens, UniProt P52333); test: Kinome selectivity screen JAK3; format: biochemical; conditions: 1 μM compound
Protocol: as §1, §2

[5] = target: ACVR1B (ALK4) (Homo sapiens, UniProt P36896); test: Kinome selectivity screen ACVR1B; format: biochemical; conditions: 1 μM compound
Protocol: as §1, §2

[6] = target: KIT (Homo sapiens, UniProt P10721); test: Kinome selectivity screen KIT; format: biochemical; conditions: 1 μM compound
Protocol: as §1, §2

[7] = target: RPS6KB1 (p70S6K) (Homo sapiens, UniProt P23443); test: Kinome selectivity screen RPS6KB1; format: biochemical; conditions: 1 μM compound
Protocol: as §1, §2

[8] = target: MAPK1 (ERK2) (Homo sapiens, UniProt P28482); test: Kinome selectivity screen MAPK1; format: biochemical; conditions: 1 μM compound
Protocol: as §1, §2

[9] = target: MAPKAPK2 (Homo sapiens, UniProt P49137); test: Kinome selectivity screen MAPKAPK2; format: biochemical; conditions: 1 μM compound
Protocol: as §1, §2

[10] = target: DAPK3 (ZIPK) (Homo sapiens, UniProt O43293); test: Kinome selectivity screen DAPK3; format: biochemical; conditions: 1 μM compound
Protocol: as §1, §2

[11] = target: CSNK1G2 (CK1 gamma 2) (Homo sapiens, UniProt P78368); test: Kinome selectivity screen CSNK1G2; format: biochemical; conditions: 1 μM compound
Protocol: as §1, §2

[12] = target: SYK (Homo sapiens, UniProt P43405); test: Kinome selectivity screen SYK; format: biochemical; conditions: 1 μM compound
Protocol: as §1, §2

[13] = target: MAPK8 (JNK1) (Homo sapiens, UniProt P45983); test: Kinome selectivity screen MAPK8; format: biochemical; conditions: 1 μM compound
Protocol: as §1, §2

[14] = target: PRKACA (PKA) (Homo sapiens, UniProt P17612); test: Kinome selectivity screen PRKACA; format: biochemical; conditions: 1 μM compound
Protocol: as §1, §2

[15] = target: CHEK1 (CHK1) (Homo sapiens, UniProt O14757); test: Kinome selectivity screen CHEK1; format: biochemical; conditions: 1 μM compound
Protocol: as §1, §2

[16] = target: PRKCE (PKC epsilon) (Homo sapiens, UniProt Q02156); test: Kinome selectivity screen PRKCE; format: biochemical; conditions: 1 μM compound
Protocol: as §1, §2

[17] = target: PLK1 (Homo sapiens, UniProt P53350); test: Kinome selectivity screen PLK1; format: biochemical; conditions: 1 μM compound
Protocol: as §1, §2

[18] = test system: pATF2 in HEK293 cells; test: pATF2 inhibition in HEK293 cells; format: cell-based; conditions: Homo sapiens
Protocol: HEK293, Beas2B and 3T3 cells were plated 24 hours before procedure on 384 well clear bottom black flat plates (Corning) pre-coated with Fibronectin (Sigma) diluted in PBS to a concentration of 5 μg/ml 45 minutes prior to cells introduction. Cells were plated using Multidrop™ Combi reagent dispenser (Thermo Fisher Scientific). Compound, reagents and antibody dispensing as well as washes were performed with a CyBio liquid handler (Analytik). Cells were pre-incubated with a small molecule or up to 1% DMSO for 2 h before fixation. HEK293, 3T3 or Beas2B cells were treated with 0.6M/0.2M/0.2M D-Sorbitol/PBS (Sigma) for 20/40/40 min. respectively, before fixation. Media was removed and wells were immediately fixed with 150 μl per well of 3.7% formaldehyde/PBS fixing solution for 20 min. Formaldehyde was then aspired and cells were permeabilized with 150 μl of 0.5% Triton x-100/PBS solution for 10 min. After aspiration cells were washed with ice-cold methanol and stored at −20° C., for 10 min. Methanol was aspired and cells were blocked with 150 μl blocking buffer (LICOR) for 90 min. Primary antibody Phospho-SAPK/JNK T183/Y185 (CST; 9251S) was diluted 1:1000 in blocking buffer and was applied 50 μl per well, except control wells to which only blocking buffer was applied, O.N. (16 h) at 4° C. with mild shaking. […] Wells signals were analyzed with Odyssey software. […]
To rapidly assess the cellular activity (EC50) with full dose response curves of the MKK7 covalent inhibitors, according to some embodiments of the present invention, an in-cell western assay was adapted to a 384 well plate format over traditional western blot, and monitored phospho-JNK (pJNK) levels in response to osmotic shock. […] The compound's activity was assessed by pre-treating cells with either compound or DMSO for 2 hours, followed by Sorbitol stimulation. The response of pJNK, and its substrates, pc-Jun and pATF2, was measured, as well as pP38, which is a substrate of MKK4 but not MKK7, and pERK in HEK293 cells, and the results are presented in Table 5 below.

[19] = target: AMPK A1/B1/G1 (Homo sapiens, UniProt Q13131); test: Kinome selectivity screen AMPK; format: biochemical; conditions: 1 μM compound
Protocol: as §1, §2

[20] = target: LRRK2 FL (Homo sapiens, UniProt Q5S007); test: Kinome selectivity screen LRRK2 FL; format: biochemical; conditions: 1 μM compound
Protocol: as §1, §2

[21] = target: LRRK2 (Homo sapiens, UniProt Q5S007); test: Kinome selectivity screen LRRK2; format: biochemical; conditions: 1 μM compound
Protocol: as §1, §2

[22] = target: PIM1 (Homo sapiens, UniProt P11309); test: Kinome selectivity screen PIM1; format: biochemical; conditions: 1 μM compound
Protocol: as §1, §2

Chain of MAPKAPK2 (P49137 whole entry): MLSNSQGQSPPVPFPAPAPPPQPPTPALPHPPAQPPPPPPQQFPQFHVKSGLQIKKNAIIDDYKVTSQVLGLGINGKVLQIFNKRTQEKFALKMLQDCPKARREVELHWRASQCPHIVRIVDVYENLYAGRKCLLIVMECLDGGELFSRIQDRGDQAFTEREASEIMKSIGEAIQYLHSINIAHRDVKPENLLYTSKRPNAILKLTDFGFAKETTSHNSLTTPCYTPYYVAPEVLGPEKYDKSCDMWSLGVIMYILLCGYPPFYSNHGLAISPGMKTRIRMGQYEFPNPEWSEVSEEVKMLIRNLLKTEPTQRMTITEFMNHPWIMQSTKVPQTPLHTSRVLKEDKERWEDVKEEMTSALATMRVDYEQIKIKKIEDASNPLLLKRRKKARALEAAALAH
Chain of AMPK A1/B1/G1 (Q13131 whole entry): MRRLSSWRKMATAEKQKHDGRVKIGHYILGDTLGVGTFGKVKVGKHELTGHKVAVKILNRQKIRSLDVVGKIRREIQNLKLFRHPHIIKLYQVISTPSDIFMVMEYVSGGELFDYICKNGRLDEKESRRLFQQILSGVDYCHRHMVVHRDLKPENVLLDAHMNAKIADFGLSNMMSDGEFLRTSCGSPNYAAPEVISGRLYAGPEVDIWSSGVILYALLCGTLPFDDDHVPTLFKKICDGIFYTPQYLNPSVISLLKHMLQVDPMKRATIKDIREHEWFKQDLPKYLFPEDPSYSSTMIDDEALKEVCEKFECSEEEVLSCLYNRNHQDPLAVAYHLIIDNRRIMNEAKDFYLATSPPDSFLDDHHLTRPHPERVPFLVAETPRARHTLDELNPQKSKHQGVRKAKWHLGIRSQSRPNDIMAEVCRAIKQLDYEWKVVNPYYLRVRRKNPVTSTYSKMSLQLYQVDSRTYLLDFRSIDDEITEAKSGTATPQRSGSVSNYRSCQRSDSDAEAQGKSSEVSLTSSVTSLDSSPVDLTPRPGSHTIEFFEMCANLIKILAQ
Chain of AMPK A1/B1/G1 (Q9Y478 whole entry partner): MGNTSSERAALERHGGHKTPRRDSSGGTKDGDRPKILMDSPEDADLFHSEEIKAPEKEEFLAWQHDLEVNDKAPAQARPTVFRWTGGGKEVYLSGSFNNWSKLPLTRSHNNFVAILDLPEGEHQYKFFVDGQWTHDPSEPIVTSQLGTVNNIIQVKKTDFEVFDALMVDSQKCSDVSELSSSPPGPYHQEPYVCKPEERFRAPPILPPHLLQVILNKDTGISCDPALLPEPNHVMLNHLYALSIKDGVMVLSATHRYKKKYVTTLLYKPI
Chain of AMPK A1/B1/G1 (P54619 whole entry partner): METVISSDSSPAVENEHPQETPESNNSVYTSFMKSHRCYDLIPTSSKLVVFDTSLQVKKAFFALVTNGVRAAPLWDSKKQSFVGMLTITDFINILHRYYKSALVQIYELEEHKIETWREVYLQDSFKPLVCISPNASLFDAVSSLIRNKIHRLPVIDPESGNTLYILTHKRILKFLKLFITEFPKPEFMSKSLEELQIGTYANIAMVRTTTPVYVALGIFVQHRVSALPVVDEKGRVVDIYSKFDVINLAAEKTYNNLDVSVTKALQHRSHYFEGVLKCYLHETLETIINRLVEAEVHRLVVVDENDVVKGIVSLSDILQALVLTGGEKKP
Chain of MAPK8 (JNK1) (P45983 whole entry): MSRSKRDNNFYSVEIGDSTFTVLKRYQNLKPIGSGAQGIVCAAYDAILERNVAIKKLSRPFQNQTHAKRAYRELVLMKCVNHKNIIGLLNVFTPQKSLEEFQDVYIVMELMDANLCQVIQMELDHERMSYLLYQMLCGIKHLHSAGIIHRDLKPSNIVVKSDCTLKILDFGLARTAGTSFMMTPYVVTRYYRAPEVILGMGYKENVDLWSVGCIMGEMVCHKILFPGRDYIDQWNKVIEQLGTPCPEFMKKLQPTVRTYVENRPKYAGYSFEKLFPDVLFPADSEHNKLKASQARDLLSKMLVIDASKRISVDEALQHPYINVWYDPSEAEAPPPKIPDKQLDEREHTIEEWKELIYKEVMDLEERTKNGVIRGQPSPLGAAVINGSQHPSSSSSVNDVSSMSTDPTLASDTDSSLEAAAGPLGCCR
Chain of CHEK1 (CHK1) (O14757 whole entry): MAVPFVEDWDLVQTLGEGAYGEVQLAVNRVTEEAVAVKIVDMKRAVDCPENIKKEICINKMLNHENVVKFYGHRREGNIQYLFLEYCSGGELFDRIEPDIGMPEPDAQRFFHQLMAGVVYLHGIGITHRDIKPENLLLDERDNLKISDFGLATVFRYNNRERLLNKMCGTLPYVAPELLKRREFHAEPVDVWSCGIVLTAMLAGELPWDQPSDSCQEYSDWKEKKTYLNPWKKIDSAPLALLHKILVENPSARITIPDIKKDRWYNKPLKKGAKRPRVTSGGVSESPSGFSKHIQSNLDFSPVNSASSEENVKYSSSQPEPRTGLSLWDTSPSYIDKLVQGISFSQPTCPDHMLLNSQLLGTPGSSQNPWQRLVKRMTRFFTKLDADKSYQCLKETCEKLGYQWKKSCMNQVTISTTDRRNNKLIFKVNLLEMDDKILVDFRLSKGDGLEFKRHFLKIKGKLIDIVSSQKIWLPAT
Chain of KIT (P10721 26-976): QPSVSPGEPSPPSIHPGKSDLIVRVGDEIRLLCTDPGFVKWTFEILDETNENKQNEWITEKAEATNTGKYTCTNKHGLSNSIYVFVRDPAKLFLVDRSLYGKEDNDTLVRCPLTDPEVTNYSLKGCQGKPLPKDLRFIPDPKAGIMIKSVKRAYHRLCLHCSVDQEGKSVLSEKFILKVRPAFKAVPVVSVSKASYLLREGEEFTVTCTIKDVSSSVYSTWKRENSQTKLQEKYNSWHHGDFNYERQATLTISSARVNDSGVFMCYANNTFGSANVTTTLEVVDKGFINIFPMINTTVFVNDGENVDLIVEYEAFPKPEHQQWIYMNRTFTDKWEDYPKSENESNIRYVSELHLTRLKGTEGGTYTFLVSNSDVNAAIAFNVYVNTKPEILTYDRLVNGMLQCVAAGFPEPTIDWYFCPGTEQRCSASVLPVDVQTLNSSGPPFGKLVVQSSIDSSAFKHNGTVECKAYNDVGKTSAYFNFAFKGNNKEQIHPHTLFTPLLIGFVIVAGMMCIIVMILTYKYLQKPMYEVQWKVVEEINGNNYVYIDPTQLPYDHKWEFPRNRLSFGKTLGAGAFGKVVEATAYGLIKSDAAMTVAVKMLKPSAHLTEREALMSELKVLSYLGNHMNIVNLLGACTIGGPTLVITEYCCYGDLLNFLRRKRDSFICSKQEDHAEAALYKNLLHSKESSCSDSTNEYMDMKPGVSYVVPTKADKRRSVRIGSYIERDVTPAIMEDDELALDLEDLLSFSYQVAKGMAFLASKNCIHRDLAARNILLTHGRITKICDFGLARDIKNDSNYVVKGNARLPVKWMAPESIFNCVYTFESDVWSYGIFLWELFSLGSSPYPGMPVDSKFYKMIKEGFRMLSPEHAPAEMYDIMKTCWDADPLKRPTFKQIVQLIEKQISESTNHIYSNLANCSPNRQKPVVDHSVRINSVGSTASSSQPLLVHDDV
Chain of PLK1 (P53350 whole entry): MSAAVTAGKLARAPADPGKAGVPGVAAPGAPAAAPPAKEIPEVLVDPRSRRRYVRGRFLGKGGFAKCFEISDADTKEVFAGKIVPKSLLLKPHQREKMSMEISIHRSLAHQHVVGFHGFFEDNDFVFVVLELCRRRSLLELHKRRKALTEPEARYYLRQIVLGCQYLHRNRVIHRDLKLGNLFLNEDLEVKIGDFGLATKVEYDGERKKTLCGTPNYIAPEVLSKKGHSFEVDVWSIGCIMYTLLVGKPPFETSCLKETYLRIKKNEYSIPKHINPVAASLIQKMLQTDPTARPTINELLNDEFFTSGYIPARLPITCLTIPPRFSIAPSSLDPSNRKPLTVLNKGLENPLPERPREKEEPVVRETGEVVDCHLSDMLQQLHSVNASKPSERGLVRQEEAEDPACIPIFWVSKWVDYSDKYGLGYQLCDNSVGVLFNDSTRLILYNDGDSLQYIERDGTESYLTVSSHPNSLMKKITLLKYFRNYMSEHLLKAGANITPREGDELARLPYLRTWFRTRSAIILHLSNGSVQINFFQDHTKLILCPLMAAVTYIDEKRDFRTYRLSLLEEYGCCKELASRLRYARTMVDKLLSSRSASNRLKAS
Chain of PIM1 (P11309 whole entry): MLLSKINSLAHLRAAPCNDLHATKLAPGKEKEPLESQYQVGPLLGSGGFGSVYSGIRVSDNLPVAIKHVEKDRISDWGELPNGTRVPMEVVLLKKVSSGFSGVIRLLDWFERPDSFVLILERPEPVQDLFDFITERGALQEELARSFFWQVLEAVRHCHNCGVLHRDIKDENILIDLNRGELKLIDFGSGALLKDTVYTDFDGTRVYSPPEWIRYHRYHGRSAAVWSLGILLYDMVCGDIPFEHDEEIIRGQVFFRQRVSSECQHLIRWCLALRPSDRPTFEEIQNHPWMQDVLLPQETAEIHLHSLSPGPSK
Chain of DAPK3 (ZIPK) (O43293 whole entry): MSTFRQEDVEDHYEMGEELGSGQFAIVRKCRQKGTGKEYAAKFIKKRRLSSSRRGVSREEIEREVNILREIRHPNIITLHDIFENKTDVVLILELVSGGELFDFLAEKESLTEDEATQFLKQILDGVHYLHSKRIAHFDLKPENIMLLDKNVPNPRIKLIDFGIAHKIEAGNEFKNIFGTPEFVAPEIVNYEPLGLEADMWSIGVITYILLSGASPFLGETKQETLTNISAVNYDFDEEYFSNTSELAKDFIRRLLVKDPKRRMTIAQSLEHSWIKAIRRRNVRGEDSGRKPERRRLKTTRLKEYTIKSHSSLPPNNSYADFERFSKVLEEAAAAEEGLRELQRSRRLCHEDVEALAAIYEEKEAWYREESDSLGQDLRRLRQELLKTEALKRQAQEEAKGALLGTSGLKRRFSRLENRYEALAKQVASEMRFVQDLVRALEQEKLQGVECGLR

inhibition at 1 µM [1] [%]	inhibition at 1 µM [2] [%]	inhibition at 1 µM [3] [%]	inhibition at 1 µM [4] [%]	inhibition at 1 µM [5] [%]	inhibition at 1 µM [6] [%]	inhibition at 1 µM [7] [%]	inhibition at 1 µM [8] [%]	inhibition at 1 µM [9] [%]	inhibition at 1 µM [10] [%]	inhibition at 1 µM [11] [%]	inhibition at 1 µM [12] [%]	inhibition at 1 µM [13] [%]	inhibition at 1 µM [14] [%]	inhibition at 1 µM [15] [%]	inhibition at 1 µM [16] [%]	inhibition at 1 µM [17] [%]	inhibition at 1 µM [19] [%]	inhibition at 1 µM [20] [%]	SMILES	EC50 [18] [µM]	other results
-2	6	2	89	-8	17	5	-3	2	-3	3	19	15	-8	10	20	1	-5	91	C=CC(=O)Nc1cccc(-c2n[nH]c3ccccc23)c1 [GO32]	2.79	inhibition at 1 µM [21]: 95%; inhibition at 1 µM [22]: 1%
0	7	-1	64	5	10	0	3	1	-2	-13	17	16	-10	2	21	3	-5	86	C=CC(=O)Nc1cccc(-c2n[nH]c3cc(C)ccc23)c1 [GO80]	5.19	inhibition at 1 µM [21]: 94%; inhibition at 1 µM [22]: 5%
